Like-named read-outs stand apart in the source and are kept apart here.
Assays:
[1] = target: T1, co-stimulated CCR2-AT1R complexes (Homo sapiens, UniProt P30556); assay: Gαi protein dissociation assay (ligand-induced BRET) in HEK293FT cells co-stimulated with AngII and MCP-1/CCL2; type: cell-based
T1 construct: HA (haemagglutinin); expressed in transfected cells; host or cells: HEK293FT
Excerpt: To establish if ARBs maintain their potency for inhibition of Gαi protein activation the potencies of ARBs at AT1R only were correlated with the potency of ARBs at co-stimulated CCR2-AT1R complexes obtained from a Gαi protein dissociation assay (FIG. 2).
HEK293FT cells were transiently transfected by the plasmids coding for Gαi1-Nluc and CCR2-YFP haemagglutinin (HA)-tagged AT1R.
GraphPad Prism (v9.3.1) was then used plot ligand-induced BRET verses ARB concentration and potency (pIC50-values) were obtained by fitting a sigmoidal concentration response curve using non-linear regression function of GraphPad Prism (v9.3.1).
To calculate the potency of sparsentan HEK293FT cells were transiently transfected by the plasmids coding for Gαi1-Rluc8, CCR2-YFP and haemagglutinin (HA)-tagged AT1R. 48 h post-transfection, cells were incubated with substrate for 2 hours before cells were pre-incubated with sparsentan (1 μM) and filtered light emissions were sequentially measured for 1 s in each of the ‘donor wavelength window’ (410-490 nm) and ‘acceptor wavelength window’ (520-620 nm) for 30 minutes.
The potency of ARBs at co-stimulated CCR2-AT1R complexes was then compared to the potency of ARBs at AT1R using the linear regression function of GraphPad Prism (v9.3.1).

[2] = target: T2, AT1R (Homo sapiens, UniProt P30556); assay: ARB potency or affinity at AT1R only (public sources: IUPHAR guide to pharmacology, Michel et al 2013, Choung et al 2018); type: binding; conditions: reference value
T2 sequence (P30556 1-359): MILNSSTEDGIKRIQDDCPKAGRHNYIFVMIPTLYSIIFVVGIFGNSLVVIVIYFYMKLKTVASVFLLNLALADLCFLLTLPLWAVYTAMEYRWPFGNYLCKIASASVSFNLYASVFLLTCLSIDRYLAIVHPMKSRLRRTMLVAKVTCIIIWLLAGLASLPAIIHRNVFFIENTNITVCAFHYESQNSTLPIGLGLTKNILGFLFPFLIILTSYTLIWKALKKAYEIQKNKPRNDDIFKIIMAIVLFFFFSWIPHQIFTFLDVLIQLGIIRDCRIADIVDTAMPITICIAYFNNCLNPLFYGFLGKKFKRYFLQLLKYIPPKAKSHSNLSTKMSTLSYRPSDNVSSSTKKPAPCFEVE

[3] = target: T2, AT1R; conditions: pIC50 or pKb from IUPHAR and/or Michel et al (2013), fimasartan from Choung et al 2018; cited from earlier work
[4] = system: angiotensin II-induced cellular responses; conditions: compared with losartan; cited from earlier work
[5] = system: chemotactic migration of monocytes by MCP-1; conditions: cited from earlier work
[6] = Effect of different doses of repagermanium on efficacy of treatment (FIG. 1); type: in vivo
[7] = Population pharmacokinetic analysis of repagermanium (studies DMX-200-101, -202, -203; LC-MS/MS plasma levels); type: in vivo, human; conditions: for AUC(0-t) at 24 h: 240 mg/day, read-out: AUC24h, steady state, median; for AUC(0-t) at 24 h / AUC24h, steady state, range: 240 mg total daily dose; for CL/F: po, read-out: Clearance, median (converted)
Experimental: In all studies blood samples were analyzed using liquid chromatography tandem mass spectrometry (LC-MS/MS). This method involves the addition of deuterated-PPG (d2-PPG) as an internal standard (IS) and liquid-liquid extraction with chloroform for sample processing. The sample is analyzed on an LC-MS/MS system consisting of a Shimadzu LC20AD with Thermo Fisher Hypercarb column using gradient elution and an API 4000 mass spectrometer. The mass spectrometer is operated in the negative electrospray ionization (ESI) ion mode, and used to monitor the precursor to product ion transitions for PPG and d2-PPG, respectively. The lower limit of quantification (LLOQ) was 5 ng/ml.
The pharmacometric analysis was carried out in several steps driven by the suitability of the clinical data for development of the PK model. 1. An initial structural population PK model was developed using data from healthy volunteers (study 101). 2. This model was subsequently updated using the sparse data in patients from studies 202 and 203, and effects of covariates were explored. 3. Model qualification was performed. 4. Finally, the developed model was used for simulations of the influence of covariates on key PK parameters as well as on potential exposures.
The SAS software (version 9.4) was used for preparing the analysis dataset. The population PK analysis was performed using NONMEM (version 7.5.0) and the first order conditional estimation (FOCE) method with interaction. PsN (version≥5.0.0) was used to execute NONMEM runs as well as for running visual predictive checks (VPCs), sampling importance resampling (SIR) and automated step-wise covariate modelling (SCM). The R software (version≥4.0.2) was used for exploratory analysis, creation of goodness of fit (GOF) plots, and summary statistics. Campsis (version 1.1.0), an R-based software application provided by Calvagone, was used for simulations.
The NONMEM version 7.5.0 was used with the GNU Fortran (GCC) compiler version 9.3.0, running on a Ubuntu 20.04 LTS system with Linux kernel version 5.4.0-72-generic on Intel Xeon E5-2640 v3 @ 8 HT 2.60 GHz, using VMWare ESXi 7.0u1 platform with fault tolerance, hosting virtual management server with 8 vCPU; and calculation nodes with Intel Xeon E5-2680 v4 14HT 2.40 GHz. Fortran compiler optimisation options were:-static-w-O3-ffast-math. All software was used in a validated environment.
In the mixed effects modelling the population parameters are categorised as follows: Fixed effects parameters, θ (theta), are used for the structural population parameters (e.g. Ka, CL, V, F, etc.), as well as certain parameters relating the population parameters to the physiological or demographic variables (covariates) included in the analysis. Random effects parameters, n (eta), are used for describing inter-individual variability (IIV) in the fixed effects parameters, and can also be used to describe inter-occasion variability (IOV) if appropriately included in the model. Eta parameters are assumed to be normally distributed random variables with mean zero and variance-covariance matrix Q (omega). The square root of the diagonal elements of this matrix provides the IIV estimates. Off-diagonal elements (if not fixed to zero) are commonly translated to correlations. Random effects parameters, ¿ (epsilon), are used to describe the residual variability. Residual variability includes intra-individual error, analytical error, potential error due to model missspecification and any other error not considered by structural elements such as θ and η. Residual variability parameters are assumed to be normally distributed random variables with mean zero and standard deviation σ (sigma).
Different structural models combined with different residual error models and, if needed, with different estimation methods were applied to identify the most appropriate mixed-effects model. […]

[8] = system: protein to creatinine ratio; assay: Reduction in protein to creatinine ratio as a biomarker of kidney function; type: in vivo, human; conditions: 120 mg BID
[9] = study 101, healthy volunteers, oral
[10] = study 202, FSGS patients receiving irbesartan
[11] = study 203, DKD patients receiving irbesartan

T1 sequence (P41597 whole entry partner, one chain of several): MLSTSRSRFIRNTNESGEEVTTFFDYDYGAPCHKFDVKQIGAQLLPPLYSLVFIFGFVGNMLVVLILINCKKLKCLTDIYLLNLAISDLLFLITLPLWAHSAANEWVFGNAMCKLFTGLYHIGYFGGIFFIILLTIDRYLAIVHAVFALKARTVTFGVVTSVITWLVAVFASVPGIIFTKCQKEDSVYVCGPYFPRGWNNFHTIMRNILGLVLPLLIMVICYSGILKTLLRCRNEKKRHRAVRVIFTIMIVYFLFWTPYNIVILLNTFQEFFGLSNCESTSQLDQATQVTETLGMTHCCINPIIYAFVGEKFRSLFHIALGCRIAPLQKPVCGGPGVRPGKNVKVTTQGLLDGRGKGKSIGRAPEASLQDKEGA

Structure (SMILES): CCOc1nc2cccc(C(=O)O)c2n1Cc1ccc(-c2ccccc2-c2nc(=O)o[nH]2)cc1 [Azilsartan]
- Potency (pIC50), AT1R-CCR2 ([1]; HEK293FT, 100 nM AngII + 100 nM MCP-1, 30 min ARB pre-incubation): 9.97
- Fold decrease in potency, AT1R only [2]: 1.00 fold
- Potency (pIC50/pKb), AT1R only [3]: 9.9

Structure (SMILES): CCOc1nc2cccc(C(=O)O)c2n1Cc1ccc(-c2ccccc2-c2nnn[nH]2)cc1 [Candesartan]
- Fold decrease in potency, AT1R only [2]: 1.00 fold
- Potency (pIC50/pKb), AT1R only [3]: 10

Structure (SMILES): CCCCc1nc(Cl)c(C(=O)O)n1Cc1ccc(-c2ccccc2-c2nn[nH]n2)cc1 [EXP3174]
- potency in blocking angiotensin II-induced cellular responses [4]: significantly more potent than losartan

Structure (SMILES): CCCCc1ncc(/C=C(\Cc2cccs2)C(=O)O)n1Cc1ccc(C(=O)O)cc1 [Eprosartan]
- Fold decrease in potency, AT1R only [2]: 1.00 fold
- Potency (pIC50/pKb), AT1R only [3]: 8.8

Structure (SMILES): CCCCc1nc(C)c(CC(=S)N(C)C)c(=O)n1Cc1ccc(-c2ccccc2-c2nnn[nH]2)cc1 [Fimasartan]
- Fold decrease in potency, AT1R only [2]: 1.00 fold
- Potency (pIC50/pKb), AT1R only [3]: 8.82^$

Structure (SMILES): CCCCC1=NC2(CCCC2)C(=O)N1Cc1ccc(-c2ccccc2S(=O)(=O)Nc2noc(C)c2C)c(COCC)c1 [Sparsentan, 2-[4-[(2-butyl-4-oxo-1,3-diazaspiro[4.4]non-1-en-3-yl)methyl]-2-(ethoxymethyl)phenyl]-N-(4,5-dimethyl-1,2-oxazol-3-yl)benzenesulfonamide]
- Kb ([1]; read-out: Affinity (pKb), AT1R-CCR2 (converted)): 1.74 nM
- Fold decrease in potency, AT1R only [2]: 1.00 fold
- Potency (pIC50/pKb), AT1R only [3]: 9.1

Structure (SMILES): O=C(O)C[CH2][Ge](=[O])[O][Ge](=[O])[CH2]CC(=O)O [propagermanium, 3-[(2-carboxyethyl-oxogermyl)oxy-oxogermyl] propanoic acid]
- inhibition of in vitro chemotactic migration of monocytes by MCP-1 [5]: specifically inhibit in vitro chemotactic migration of monocytes by MCP-1

Structure (SMILES): O=C(O)C[CH2][Ge](=[O])[O][Ge](=[O])[CH2]CC(=O)O [repagermanium, 3-[(2-carboxyethyl-oxogermyl)oxy-oxogermyl]propanoic acid]
- therapeutic effect ([6]; 140 mg twice per day): reduced therapeutic effect
- efficacy vs repagermanium dose ([6]; different doses, FIG. 1): ‘bell-shaped’ inhibitory curve
- blood concentration before the next dose ([7]; 80 mg twice per day): falling too low before the next dose to provide a therapeutic effect
- steady state AUC, range ([7]; 120 mg BID): 5000 to 25000 ng·h/mL
- AUC(0-t) at 24 h ([7]; human, plasma, study 101, healthy volunteers): 9800 ng·h/mL
- AUC(0-t) at 24 h ([7]; human, plasma, study 202, FSGS patients): 16700 ng·h/mL
- AUC(0-t) at 24 h ([7]; human, plasma, study 203, DKD patients): 11800 ng·h/mL
- CL/F ([7]; human, plasma, study 101, healthy volunteers, oral): 670 mL/min
- CL/F ([7]; human, plasma, study 202, FSGS patients receiving irbesartan, 120 mg bid oral): 300 mL/min
- CL/F ([7]; human, plasma, study 203, DKD patients receiving irbesartan, 120 mg bid oral): 345 mL/min
- AUC ([7]; human, plasma, 120 mg BID, read-out: steady state AUC): ~15000 ng·h/mL
- Clearance, range [7, 9]: 24.6 to 60.1 L/h
- F (rel. bioavailability), median [7, 9]: 1.6
- F (rel. bioavailability), range [7, 9]: 0.7-3.7
- AUC24h, steady state, range ([7]; study 101, healthy volunteers): 5500 to 24900 ng·h/mL
- F (rel. bioavailability), median [7, 10]: 1.1
- F (rel. bioavailability), range [7, 10]: 0.9-1.7
- Clearance, range ([7]; study 202, FSGS patients receiving irbesartan, 120 mg bid oral): 4.6 to 36.5 L/h
- AUC24h, steady state, range ([7]; study 202, FSGS patients): 7800 to 45200 ng·h/mL
- F (rel. bioavailability), median [7, 11]: 1.0
- F (rel. bioavailability), range [7, 11]: 0.4-1.9
- Clearance, range ([7]; study 203, DKD patients receiving irbesartan, 120 mg bid oral): 5.8 to 47.6 L/h
- AUC24h, steady state, range ([7]; study 203, DKD patients): 3900 to 47700 ng·h/mL
- protein to creatinine ratio [8]: reduction in protein to creatinine ratio

Reference: US20260315521A1, “THERAPEUTIC FORMULATIONS FOR KIDNEY DISEASE COMPRISING REPAGERMANIUM OR PROPAGERMANIUM AND/OR AT1R BLOCKERS” (DIMERIX BIOSCIENCE PTY LTD, priority 2023, published 2026)
